The record followed here is article PMC9706563, “Development of Macrocyclic PRMT5–Adaptor Protein Interaction Inhibitors” (Journal of Medicinal Chemistry, 2022).

Data set [1] can be described thus: Stability assay in cell lysate. Type of data set: in vitro ADME. The protocol:
To the whole cell lysate prepared from U2OS cells with the freeze–thaw method was added the appropriate peptide, resulting in a mixture of 0.5 mg/mL protein and 600 μM peptide in PBS, and incubated at 37 °C. The samples were taken at 0, 15, 30 min, 1, 2, 4 h, 1, 3, and 7-days time points and mixed with an equal volume of ice-cold ethylparaben solution in MeOH (0.1 mg/mL), used as the internal standard. The samples were kept on ice for 15 min and centrifuged at 16,873 × g at 4 °C for 5 min. The obtained supernatant was then analyzed by HPLC, the peptide and the internal standard peaks at 210 nm were integrated, and the ratio of the peptide peak surface area to the internal standard was calculated. The experiment was conducted in duplicate.

Data set [2] deals with T1, PRMT5-MEP50 (Homo sapiens, UniProt O14744).
T1 construct: The compounds were tested by means of FP with the full-length PRMT5-MEP50 complex; made in house
Briefly: Direct binding fluorescence polarization (FP) assay of FITC-labeled peptides. Conditions: supplementary CSV, read-out: PRMT5-MEP50 Kd.
Experimental: The assay was performed in a buffer of 50 mM 4-(2-hydroxyethyl)-1-piperazineethanesulfonic acid (HEPES), 250 mM NaCl, 1 mM tris(2-carboxyethyl)phosphine (TCEP), and 0.01% (v/v) Tween 20, pH 8.0, in black, 384-well plates with a total volume of 10 μL per well. […] The plates were incubated at room temperature for 1 to 2 h and analyzed on a plate reader using 485 nm excitation and 535 nm emission wavelength. The assay was performed in triplicate.

Read-outs that look alike come from different tables or passages of the source. Square brackets hold non-standard residues; d marks the D form. Peptide text beside a SMILES is read from it. * marks the point of attachment. FITC = O=C1OC2(c3ccc(O)cc3Oc3cc(O)ccc32)c2ccc(NC(=S)*)cc21; Phe(2-F) = N[C@@H](Cc1ccccc1F)C(=O)O

T1 sequence (O14744 whole entry): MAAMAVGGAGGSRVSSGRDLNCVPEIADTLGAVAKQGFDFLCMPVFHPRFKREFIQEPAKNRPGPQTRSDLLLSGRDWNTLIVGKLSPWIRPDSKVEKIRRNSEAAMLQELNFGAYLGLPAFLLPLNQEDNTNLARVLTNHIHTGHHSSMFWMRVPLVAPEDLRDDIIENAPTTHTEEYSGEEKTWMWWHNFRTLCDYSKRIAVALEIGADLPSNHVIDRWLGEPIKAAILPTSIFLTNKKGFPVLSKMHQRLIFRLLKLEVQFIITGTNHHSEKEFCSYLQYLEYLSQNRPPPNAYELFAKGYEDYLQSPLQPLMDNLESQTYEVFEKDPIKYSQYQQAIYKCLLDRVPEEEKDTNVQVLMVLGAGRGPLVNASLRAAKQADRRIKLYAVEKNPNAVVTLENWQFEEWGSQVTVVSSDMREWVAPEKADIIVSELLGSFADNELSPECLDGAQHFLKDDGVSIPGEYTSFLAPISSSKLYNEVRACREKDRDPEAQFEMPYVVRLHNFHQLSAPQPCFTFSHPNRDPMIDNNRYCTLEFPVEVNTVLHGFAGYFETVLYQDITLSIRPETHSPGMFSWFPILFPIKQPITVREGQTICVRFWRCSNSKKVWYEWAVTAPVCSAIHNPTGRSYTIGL
T1 sequence (Q9BQA1 whole entry partner): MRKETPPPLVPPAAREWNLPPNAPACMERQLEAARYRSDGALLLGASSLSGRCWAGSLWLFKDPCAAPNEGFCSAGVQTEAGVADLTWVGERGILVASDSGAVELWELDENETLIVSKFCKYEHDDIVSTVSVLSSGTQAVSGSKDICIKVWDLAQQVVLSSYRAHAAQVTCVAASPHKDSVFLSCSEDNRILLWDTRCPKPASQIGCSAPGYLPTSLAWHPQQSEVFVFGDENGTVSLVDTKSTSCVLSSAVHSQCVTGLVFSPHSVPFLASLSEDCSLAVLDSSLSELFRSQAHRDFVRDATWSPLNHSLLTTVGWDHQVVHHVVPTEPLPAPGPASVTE

Turning to Ac-VPGQFDDAD-NH2 [Compound 31], the half-life is 4.4 h in data set [1] (U2OS cell lysate, 37 °C, 600 μM peptide) and 4.32 h in data set [1] (cells or culture medium, supplementary CSV, read-out: Half-llife in Lysate (converted)).

What is called Kd is the equilibrium constant for the complex coming apart. `CC(=O)N[C@H](C(=O)N1CCC[C@H]1C(=O)NC1CC=CC[C@@H](C(=O)N[C@@H](CC(=O)O)C(=O)N[C@@H](C)C(=O)N[C@@H](CC(=O)O)C(=O)N[C@@H](CCCCNC(=S)Nc2ccc3c(c2)C(=O)OC32c3ccc(O)cc3Oc3cc(O)ccc32)C(N)=O)NC(=O)[C@H](Cc2ccccc2)NC(=O)[C@H](CCC(N)=O)NC1=O)C(C)C` (stereo in doubt) [Compound 17]: the Kd in data set [2] was found to be 452 ± 1 nM. On to `CC(=O)N[C@H](C(=O)N1CCC[C@H]1C(=O)NCC(=O)N[C@@H](CCC(N)=O)C(=O)N[C@@H](Cc1ccccc1F)C(=O)N[C@@H](CC(=O)O)C(=O)N[C@@H](CC(=O)O)C(=O)N[C@@H](C)C(=O)N[C@@H](CC(=O)O)C(=O)N[C@@H](CCCCNC(=S)Nc1ccc2c(c1)C(=O)OC21c2ccc(O)cc2Oc2cc(O)ccc21)C(N)=O)C(C)C` [Compound S12] (Ac-VPGQ[Phe(2-F)]DDADK(FITC)-NH2), for which the Kd in data set [2] is over 1000 nM.
